Test results published in ChEMBL document CHEMBL4406842, “Synthesis and in vitro biological evaluation of novel derivatives of Flexicaulin A condensation with amino acid trifluoroacetate” (Eur J Med Chem, 2019).
Active and inactive are the calls of the source. The rule behind the calls is not given here.

Experiments:
[1] = test system: MCF7; experiment: Antiproliferative activity against human MCF7 cells assessed as reduction in cell viability incubated for 72 hrs by SRB assay; format: functional, cell-based; conditions: MCF7, 72 h
[2] = test system: TE-1; experiment: Induction of ROS production in human TE1 cells at 0.75 umol/L incubated for 48 hrs by DCFH-DA staining based flow cytometry (reference value: 2.4 %); format: functional
[3] = test system: TE-1; experiment: Induction of apoptosis in human TE1 cells assessed as increase in cleaved PARP level at 0.75 to 3 umol/L incubated for 48 hrs by Western blot analysis; format: functional, cell-based
[4] = test system: GES1; experiment: Cytotoxicity against human GES-1 cells assessed as reduction in cell viability by SRB assay; format: cell-based
[5] = test system: TE-1; experiment: Induction of apoptosis in human TE1 cells assessed as early apoptotic cells at 0.75 umol/L incubated for 48 hrs by annexin V-FITC and propidium iodide staining based flow cytometry (reference value: 0.9 %); format: functional
[6] = test system: TE-1; experiment: Induction of apoptosis in human TE1 cells assessed as increase in Bax-Bcl2 ratio at 0.75 to 3 umol/L incubated for 48 hrs by Western blot analysis; format: functional, cell-based
[7] = test system: TE-1; experiment: Induction of apoptosis in human TE1 cells assessed as increase in Bak protein level at 0.75 to 3 umol/L incubated for 48 hrs by Western blot analysis; format: functional, cell-based
[8] = organism: Homo sapiens; experiment: Activation of SAPK/JNK signalling pathway in human TE1 cells assessed as increase in ASK1 phosphorylation at 1.5 and 3 umol/L incubated for 48 hrs by Western blot analysis; format: cell-based
[9] = organism: Homo sapiens; experiment: Activation of SAPK/JNK signalling pathway in human TE1 cells assessed as increase in MKK4 phosphorylation at 0.75 to 3 umol/L incubated for 48 hrs by Western blot analysis; format: cell-based
[10] = test system: TE-1; experiment: Induction of ROS production in human TE1 cells at 3 umol/L incubated for 48 hrs by DCFH-DA staining based flow cytometry (reference value: 2.4 %); format: functional
[11] = test system: TE-1; experiment: Induction of apoptosis in human TE1 cells assessed as late apoptotic cells at 1.5 umol/L incubated for 48 hrs by annexin V-FITC and propidium iodide staining based flow cytometry (reference value: 2.8 %); format: functional
[12] = test system: TE-1; experiment: Induction of ROS production in human TE1 cells at 1.5 umol/L incubated for 48 hrs by DCFH-DA staining based flow cytometry (reference value: 2.4 %); format: functional
[13] = test system: TE-1; experiment: Antiproliferative activity against human TE1 cells assessed as reduction in cell viability incubated for 72 hrs by SRB assay; format: functional, cell-based; conditions: for IC50: TE-1, 72 h
[14] = Solubility of compound in water; format: physicochemical; conditions: buffer
[15] = test system: TE-1; experiment: Inhibition of colony formation in human TE1 cells incubated for 24 hrs supplemented with fresh medium and measured after 7 days by crystal violet staining based assay; format: functional, cell-based
[16] = test system: TE-1; experiment: Induction of apoptosis in human TE1 cells assessed as early apoptotic cells at 3 umol/L incubated for 48 hrs by annexin V-FITC and propidium iodide staining based flow cytometry (reference value: 0.9 %); format: functional
[17] = test system: A549; experiment: Antiproliferative activity against human A549 cells assessed as reduction in cell viability incubated for 72 hrs by SRB assay; format: functional, cell-based; conditions: A549, 72 h
[18] = test system: TE-1; experiment: Induction of apoptosis in human TE1 cells assessed as increase in cleaved caspase-9 level at 0.75 to 3 umol/L incubated for 48 hrs by Western blot analysis; format: functional, cell-based
[19] = test system: TE-1; experiment: Induction of apoptosis in human TE1 cells assessed as increase in cleaved caspase-3 level at 0.75 to 3 umol/L incubated for 48 hrs by Western blot analysis; format: functional, cell-based
[20] = organism: Homo sapiens; experiment: Activation of SAPK/JNK signalling pathway in human TE1 cells assessed as increase in JNK phosphorylation at 0.75 to 3 umol/L incubated for 48 hrs by Western blot analysis; format: cell-based
[21] = test system: TE-1; experiment: Induction of apoptosis in human TE1 cells assessed as increase in Bax expression at 0.75 to 3 umol/L incubated for 48 hrs by Western blot analysis; format: functional, cell-based
[22] = test system: MGC-803; experiment: Antiproliferative activity against human MGC803 cells assessed as reduction in cell viability incubated for 72 hrs by SRB assay; format: functional, cell-based; conditions: MGC-803, 72 h
[23] = test system: TE-1; experiment: Induction of apoptosis in human TE1 cells assessed as increase in NOXA protein level at 0.75 to 3 umol/L incubated for 48 hrs by Western blot analysis; format: functional, cell-based
[24] = test system: TE-1; experiment: Induction of apoptosis in human TE1 cells assessed as decrease in Bcl2 expression at 0.75 to 3 umol/L incubated for 48 hrs by Western blot analysis; format: functional, cell-based
[25] = test system: TE-1; experiment: Induction of apoptosis in human TE1 cells assessed as increase in Bad protein level at 0.75 to 3 umol/L incubated for 48 hrs by Western blot analysis; format: functional, cell-based
[26] = test system: TE-1; experiment: Induction of apoptosis in human TE1 cells assessed as late apoptotic cells at 0.75 umol/L incubated for 48 hrs by annexin V-FITC and propidium iodide staining based flow cytometry (reference value: 2.8 %); format: functional
[27] = test system: TE-1; experiment: Induction of apoptosis in human TE1 cells assessed as late apoptotic cells at 3 umol/L incubated for 48 hrs by annexin V-FITC and propidium iodide staining based flow cytometry (reference value: 2.8 %); format: functional
[28] = test system: TE-1; experiment: Inhibition of colony formation in human TE1 cells at 1 umol/l incubated for 24 hrs supplemented with fresh medium and measured after 7 days by crystal violet staining based assay relative to control; format: functional
[29] = test system: TE-1; experiment: Induction of apoptosis in human TE1 cells assessed as early apoptotic cells at 1.5 umol/L incubated for 48 hrs by annexin V-FITC and propidium iodide staining based flow cytometry (reference value: 0.9 %); format: functional

In the case of `C=C1C(=O)[C@]23[C@H](OC(=O)[C@H](Cc4ccccc4)NC)[C@H]1C[C@H](O)[C@H]2[C@]1(COC(C)=O)CCCC(C)(C)[C@H]1C[C@H]3OC.O=C(O)C(F)(F)F`, the IC50 [1] is reported as 0.89 µM, the Activity [2] is reported as 10.4% and the Activity [3] is reported as “Active”. For the same compound, the Activity [4] was “Tde and Dose-dependent effect”, the Activity [5] was 2.8% and the Activity [6] was “Active”. For the same compound, the Activity [7] was “Active”, the Activity [8] was “Active” and the Activity [9] was “Active”. The Activity [10] was 73.1%, the Activity [11] was 12% and the Activity [12] was 36.4%. For the same compound, the inhibition [13] was “Dose-dependent effect”, the IC50 [13] was 0.75 µM and the solubility [14] was “Soluble”. The inhibition [15] was “Dose-dependent effect”, the Activity [16] was 8.7% and the IC50 [17] was 1.2 µM. For the same compound, the Activity [18] was “Active”, the Activity [19] was “Active” and the Activity [20] was “Active”. The Activity [21] was “Active”, the IC50 [22] was 1.5 µM and the Activity [23] was “Active”. For the same compound, the Activity [24] was “Active”, the Activity [25] was “Active” and the Activity [26] was 5.1%. It also gave an Activity [27] of 30.7%, an inhibition at 1 µM [28] of 100% and an Activity [29] of 5%.

In the case of `C=C1C(=O)[C@]23[C@H](OC(=O)[C@H](C)N(C)C(=O)OC(C)(C)C)[C@H]1C[C@H](O)[C@H]2[C@]1(COC(C)=O)CCCC(C)(C)[C@H]1C[C@H]3OC`, the IC50 [1] is reported as 2.05 µM, the IC50 [13] is reported as 1.04 µM and the solubility [14] is reported as “Insoluble”. For the same compound, the IC50 [17] was 5.41 µM and the IC50 [22] was 3.29 µM.

In the case of `C=C1C(=O)[C@]23[C@H](OC(=O)[C@H]4CCCNC4)[C@H]1C[C@H](O)[C@H]2[C@]1(COC(C)=O)CCCC(C)(C)[C@H]1C[C@H]3OC.O=C(O)C(F)(F)F`, the IC50 [1] is reported as 11.5 µM, the IC50 [13] is reported as 6.55 µM and the solubility [14] is reported as “Soluble”. The IC50 [17] was 17.2 µM and the IC50 [22] was 6.22 µM.

For `C=C1C(=O)[C@]23[C@H](OC(=O)[C@@H](N)Cc4ccccc4)[C@H]1C[C@H](O)[C@H]2[C@]1(COC(C)=O)CCCC(C)(C)[C@H]1C[C@H]3OC.O=C(O)C(F)(F)F`, the IC50 [1] was 1.01 µM, the IC50 [13] was 1.88 µM and the solubility [14] was “Soluble”. The IC50 [17] was 2.71 µM and the IC50 [22] was 1 µM.

With `C=C1C(=O)[C@]23[C@H](OC(=O)[C@H](C(C)C)N(C)C(=O)OC(C)(C)C)[C@H]1C[C@H](O)[C@H]2[C@]1(COC(C)=O)CCCC(C)(C)[C@H]1C[C@H]3OC` the IC50 [1] was 7.1 µM, the IC50 [13] was 5.41 µM and the solubility [14] was “Insoluble”. For the same compound, the IC50 [17] was 9.5 µM and the IC50 [22] was 5.47 µM.

With `C=C1C(=O)[C@]23[C@H](OC(=O)[C@H](CCCCNC(=O)OC(C)(C)C)NC(=O)OC(C)(C)C)[C@H]1C[C@H](O)[C@H]2[C@]1(COC(C)=O)CCCC(C)(C)[C@H]1C[C@H]3OC` the IC50 [1] was 4.06 µM, the IC50 [13] was 2.76 µM and the solubility [14] was “Insoluble”. It also gave an IC50 [17] of 6.46 µM and an IC50 [22] of 5.43 µM.

In the case of `C=C1C(=O)[C@]23[C@H](OC(=O)[C@H](Cc4ccccc4)NC(=O)OC(C)(C)C)[C@H]1C[C@H](O)[C@H]2[C@]1(COC(C)=O)CCCC(C)(C)[C@H]1C[C@H]3OC`, the IC50 [1] is reported as 3.06 µM, the IC50 [13] is reported as 2.44 µM and the solubility [14] is reported as “Insoluble”. The IC50 [17] was 6.22 µM and the IC50 [22] was 3.22 µM.

With `C=C1C(=O)[C@]23[C@H](OC(=O)[C@@H]4CCCN4C(=O)OC(C)(C)C)[C@H]1C[C@H](O)[C@H]2[C@]1(COC(C)=O)CCCC(C)(C)[C@H]1C[C@H]3OC` the IC50 [1] was 3.7 µM, the IC50 [13] was 2.78 µM and the solubility [14] was “Insoluble”. The IC50 [17] was 5.9 µM and the IC50 [22] was 2.81 µM.

For `C=C1C(=O)[C@]23[C@H](OC(=O)[C@@H](N)CCSC)[C@H]1C[C@H](O)[C@H]2[C@]1(COC(C)=O)CCCC(C)(C)[C@H]1C[C@H]3OC.O=C(O)C(F)(F)F`, the IC50 [1] was 3.1 µM, the IC50 [13] was 1.6 µM and the solubility [14] was “Soluble”. The IC50 [17] was 1.96 µM and the IC50 [22] was 3.66 µM.

For `C=C1C(=O)[C@]23[C@H](OC(=O)[C@@H](N)CC)[C@H]1C[C@H](O)[C@H]2[C@]1(COC(C)=O)CCCC(C)(C)[C@H]1C[C@H]3OC.O=C(O)C(F)(F)F`, the IC50 [1] was 3.75 µM, the IC50 [13] was 2.57 µM and the solubility [14] was “Soluble”. For the same compound, the IC50 [17] was 4.42 µM and the IC50 [22] was 3.88 µM.

For `C=C1C(=O)[C@]23[C@H](OC(=O)CN)[C@H]1C[C@H](O)[C@H]2[C@]1(COC(C)=O)CCCC(C)(C)[C@H]1C[C@H]3OC.O=C(O)C(F)(F)F`, the IC50 [1] was 2.57 µM, the IC50 [13] was 1.85 µM and the solubility [14] was “Soluble”. It also gave an IC50 [17] of 3.86 µM and an IC50 [22] of 3.15 µM.

With `C=C1C(=O)[C@]23[C@H](OC(=O)[C@@H](NC)C(C)C)[C@H]1C[C@H](O)[C@H]2[C@]1(COC(C)=O)CCCC(C)(C)[C@H]1C[C@H]3OC.O=C(O)C(F)(F)F` the IC50 [1] was 3.2 µM, the IC50 [13] was 1.16 µM and the solubility [14] was “Soluble”. The IC50 [17] was 1.89 µM and the IC50 [22] was 1.64 µM.

For `C=C1C(=O)[C@]23[C@H](OC(=O)[C@@H](N)CCCCN)[C@H]1C[C@H](O)[C@H]2[C@]1(COC(C)=O)CCCC(C)(C)[C@H]1C[C@H]3OC.O=C(O)C(F)(F)F.O=C(O)C(F)(F)F`, the IC50 [1] was 22.2 µM, the IC50 [13] was 14.3 µM and the solubility [14] was “Soluble”. The IC50 [17] was 5.86 µM and the IC50 [22] was 9.52 µM.

For `C=C1C(=O)[C@]23[C@H](OC(=O)[C@@H]4CCCCN4C(=O)OC(C)(C)C)[C@H]1C[C@H](O)[C@H]2[C@]1(COC(C)=O)CCCC(C)(C)[C@H]1C[C@H]3OC`, the IC50 [1] was 2.69 µM, the IC50 [13] was 1.46 µM and the solubility [14] was “Insoluble”. The IC50 [17] was 3.57 µM and the IC50 [22] was 3 µM.

With `C=C1C(=O)[C@]23[C@H](OC(=O)[C@@H]4CCCN4)[C@H]1C[C@H](O)[C@H]2[C@]1(COC(C)=O)CCCC(C)(C)[C@H]1C[C@H]3OC.O=C(O)C(F)(F)F` the IC50 [1] was 5.1 µM, the IC50 [13] was 4.28 µM and the solubility [14] was “Soluble”. For the same compound, the IC50 [17] was 7.51 µM and the IC50 [22] was 5.02 µM.
